# Experimental data as given in ChEMBL document CHEMBL5385906, “Discovery of a Potent, Selective, and Orally Bioavailable Tool Compound for Probing the Role of Lysophosphatidic Acid Type 2 Receptor Antagonists in Fibrotic Disorders” (J Med Chem, 2023).
# Experiments:
# [1] = target: T1, Lysophosphatidic acid receptor 2 (Mus musculus, UniProt Q9JL06); assay: Antagonist activity at mouse LPA2 receptor expressed in HeLa cells assessed as inhibition of LPA-induced calcium mobilization pretreated for 15 mins followed by LPA stimulation by FLIPR analysis; type: functional, cell-based
# T1 sequence (Q9JL06 whole entry): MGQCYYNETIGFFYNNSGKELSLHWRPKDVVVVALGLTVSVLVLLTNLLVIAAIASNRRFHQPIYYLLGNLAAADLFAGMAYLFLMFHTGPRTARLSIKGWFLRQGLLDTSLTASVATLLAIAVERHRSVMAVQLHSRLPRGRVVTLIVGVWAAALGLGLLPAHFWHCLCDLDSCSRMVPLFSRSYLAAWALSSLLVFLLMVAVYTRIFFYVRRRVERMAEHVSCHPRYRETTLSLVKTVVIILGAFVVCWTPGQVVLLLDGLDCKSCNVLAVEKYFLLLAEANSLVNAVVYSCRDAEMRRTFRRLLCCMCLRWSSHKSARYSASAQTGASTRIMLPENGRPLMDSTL
# [2] = Efflux ratio of apparent permeability across apical to basolateral to basolateral to apical side in human Caco-2 cells at 10 uM measured after 60 mins by LC-MS/MS analysis
# [3] = Protein binding in human plasma assessed as fraction unbound at 0.5 uM measured after 5 hrs by LC-MS/MS analysis
# [4] = Protein binding in mouse plasma assessed as fraction unbound at 0.5 uM measured after 5 hrs by LC-MS/MS analysis
# [5] = Protein binding in mouse lungs assessed as fraction unbound at 5 uM measured after 5 hrs by LC-MS/MS analysis
# [6] = Half life in C57BL/6J mouse at 5 mg/kg, po or 4 mg/kg, iv by UPLC-MS/MS analysis; settings: in vivo
# [7] = Apparent permeability across apical to basolateral side in human Caco-2 cells at 10 uM measured after 60 mins by LC-MS/MS analysis
# [8] = Apparent permeability across basolateral to apical side in human Caco-2 cells at 10 uM measured after 60 mins by LC-MS/MS analysis
# [9] = target: Lysophosphatidic acid receptor 2 (Homo sapiens, UniProt Q9HBW0)
# Sequence of Lysophosphatidic acid receptor 2 (Homo sapiens, UniProt Q9HBW0) (Q9HBW0 whole entry): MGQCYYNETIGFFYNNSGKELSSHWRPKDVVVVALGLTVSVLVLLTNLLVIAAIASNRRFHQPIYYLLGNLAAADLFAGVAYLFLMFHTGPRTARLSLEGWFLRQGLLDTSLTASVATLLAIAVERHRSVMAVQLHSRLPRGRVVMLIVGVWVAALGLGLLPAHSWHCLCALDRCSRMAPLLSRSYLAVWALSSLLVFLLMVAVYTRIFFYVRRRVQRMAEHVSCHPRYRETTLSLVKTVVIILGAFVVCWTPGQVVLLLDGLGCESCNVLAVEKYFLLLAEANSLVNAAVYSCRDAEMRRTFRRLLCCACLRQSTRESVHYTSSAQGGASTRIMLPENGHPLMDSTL
# Description: Antagonist activity at human LPA2 receptor expressed in CHO cells assessed as inhibition of LPA-induced calcium mobilization pretreated for 15 mins followed by LPA stimulation by FLIPR analysis
# [10] = target: T1, Lysophosphatidic acid receptor 2
# Description: Antagonist activity at LPA2 receptor expressed in C57BL/6 mouse primary alveolar epithelial cells assessed as inhibition of LPA-induced calcium mobilization pretreated for 15 mins followed by LPA stimulation by FLIPR analysis
# [11] = target: Lysophosphatidic acid receptor 1 (Homo sapiens, UniProt Q92633)
# Sequence of Lysophosphatidic acid receptor 1 (Q92633 whole entry): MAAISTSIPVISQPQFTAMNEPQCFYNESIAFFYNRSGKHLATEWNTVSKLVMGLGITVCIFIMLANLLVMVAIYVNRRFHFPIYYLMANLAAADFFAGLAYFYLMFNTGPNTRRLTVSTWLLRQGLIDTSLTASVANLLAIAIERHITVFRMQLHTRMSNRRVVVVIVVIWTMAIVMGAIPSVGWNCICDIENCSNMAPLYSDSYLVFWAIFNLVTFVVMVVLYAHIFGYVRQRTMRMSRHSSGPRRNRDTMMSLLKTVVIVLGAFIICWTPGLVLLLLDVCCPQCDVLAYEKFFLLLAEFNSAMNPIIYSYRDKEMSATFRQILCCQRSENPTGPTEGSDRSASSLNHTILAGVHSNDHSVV
# Description: Antagonist activity at human LPA1 receptor expressed in CHO cells assessed as inhibition of LPA-induced calcium mobilization pretreated for 15 mins followed by LPA stimulation by FLIPR analysis
# [12] = target: T2, Lysophosphatidic acid receptor 3 (Homo sapiens, UniProt Q9UBY5)
# T2 sequence (Q9UBY5 whole entry): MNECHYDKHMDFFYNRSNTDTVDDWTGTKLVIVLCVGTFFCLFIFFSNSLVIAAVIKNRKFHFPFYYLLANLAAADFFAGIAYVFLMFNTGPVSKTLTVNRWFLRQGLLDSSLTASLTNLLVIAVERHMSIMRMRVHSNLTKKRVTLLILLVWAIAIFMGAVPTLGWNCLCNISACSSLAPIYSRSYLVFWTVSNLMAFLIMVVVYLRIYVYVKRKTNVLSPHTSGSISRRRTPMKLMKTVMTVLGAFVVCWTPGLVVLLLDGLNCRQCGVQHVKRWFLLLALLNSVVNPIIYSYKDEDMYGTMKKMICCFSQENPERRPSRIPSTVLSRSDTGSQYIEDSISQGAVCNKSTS
# Description: Antagonist activity at human LPA3 receptor expressed in HeLa cells assessed as inhibition of LPA-induced calcium mobilization pretreated for 15 mins followed by LPA stimulation by FLIPR analysis
# [13] = target: Lysophosphatidic acid receptor 4 (Homo sapiens, UniProt Q99677)
# Sequence of Lysophosphatidic acid receptor 4 (Q99677 whole entry): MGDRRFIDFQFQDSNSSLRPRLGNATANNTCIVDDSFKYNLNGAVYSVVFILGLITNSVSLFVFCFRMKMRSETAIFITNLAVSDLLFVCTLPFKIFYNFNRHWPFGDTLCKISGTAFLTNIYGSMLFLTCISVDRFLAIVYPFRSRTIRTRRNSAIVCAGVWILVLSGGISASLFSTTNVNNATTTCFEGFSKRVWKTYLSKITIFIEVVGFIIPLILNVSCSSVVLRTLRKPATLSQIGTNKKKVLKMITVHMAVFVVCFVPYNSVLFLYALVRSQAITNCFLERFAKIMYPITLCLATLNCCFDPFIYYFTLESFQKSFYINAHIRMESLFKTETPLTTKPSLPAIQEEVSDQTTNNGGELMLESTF
# [14] = target: Lysophosphatidic acid receptor 5 (Homo sapiens, UniProt Q9H1C0)
# Sequence of Lysophosphatidic acid receptor 5 (Q9H1C0 whole entry): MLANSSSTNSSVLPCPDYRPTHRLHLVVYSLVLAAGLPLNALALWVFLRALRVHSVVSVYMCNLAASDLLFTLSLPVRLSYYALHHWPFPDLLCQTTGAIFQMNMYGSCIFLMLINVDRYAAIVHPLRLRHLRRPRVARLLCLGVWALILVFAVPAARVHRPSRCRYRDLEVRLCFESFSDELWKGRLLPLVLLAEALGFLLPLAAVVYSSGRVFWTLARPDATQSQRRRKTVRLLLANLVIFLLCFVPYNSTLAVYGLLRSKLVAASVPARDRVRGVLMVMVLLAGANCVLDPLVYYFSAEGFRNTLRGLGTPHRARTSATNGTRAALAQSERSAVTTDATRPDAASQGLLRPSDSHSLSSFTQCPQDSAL
# Description: Antagonist activity at human LPA5 receptor expressed in HeLa cells assessed as inhibition of LPA-induced calcium mobilization pretreated for 15 mins followed by LPA stimulation by FLIPR analysis
# [15] = in vivo; settings: C57BL/6J, mouse, po, 5 mg/kg
# Description: Oral bioavailability in C57BL/6J mouse at 5 mg/kg by UPLC-MS/MS analysis
# [16] = in vitro; settings: human, liver microsomes, CLH
# Description: Intrinsic clearance in human liver microsomes at 0.5 uM in presence of NADPH regenerating system measured for 45 mins per mg protein by LC-MS/MS analysis
# [17] = in vitro; settings: C57BL/6J, mouse, liver microsomes
# Description: Intrinsic clearance in C57BL/6J mouse liver microsomes at 0.5 uM in presence of NADPH regenerating system measured for 45 mins per mg protein by LC-MS/MS analysis
# [18] = Half life in C57BL/6J mouse at 30 mg/kg, po and 2 mg/kg, iv by LC-MS/MS analysis; settings: in vivo
# [19] = Oral absorption in C57BL/6J mouse at 30 mg/kg by LC-MS/MS analysis; settings: in vivo
# [20] = in vivo; settings: C57BL/6J, mouse, po, 30 mg/kg
# [21] = in vivo; settings: C57BL/6J, mouse, plasma, po, 30 mg/kg
# [22] = in vivo; settings: C57BL/6J, mouse, plasma, po, 30 mg/kg; remark: listed apart in the source
# [23] = in vivo; settings: C57BL/6J, mouse, lung, po, 30 mg/kg
# [24] = in vivo; settings: C57BL/6J, mouse, lung, po, 30 mg/kg; remark: listed apart in the source
# [25] = in vivo; settings: C57BL/6J, mouse, po, 26.5 mg/kg
# Description: Half life in C57BL/6J mouse at 26.5 mg/kg, po and 2 mg/kg, iv by LC-MS/MS analysis
# [26] = in vivo; settings: C57BL/6J, mouse, po, 26.5 mg/kg; remark: listed apart in the source
# Description: Oral absorption in C57BL/6J mouse at 26.5 mg/kg by LC-MS/MS analysis
# [27] = in vivo; settings: C57BL/6J, mouse, po, 26.5 mg/kg; remark: listed apart in the source
# Description: Oral bioavailability in C57BL/6J mouse at 26.5 mg/kg by LC-MS/MS analysis
# [28] = in vivo; settings: C57BL/6J, mouse, plasma, po, 26.5 mg/kg
# Description: Total Cmax in C57BL/6J mouse plasma at 26.5 mg/kg, po and 2 mg/kg, iv by LC-MS/MS analysis
# [29] = in vivo; settings: C57BL/6J, mouse, plasma, po, 26.5 mg/kg; remark: listed apart in the source
# Description: Total AUC last in C57BL/6J mouse plasma at 26.5 mg/kg, po and 2 mg/kg, iv by LC-MS/MS analysis
# [30] = in vivo; settings: C57BL/6J, mouse, lung, po, 26.5 mg/kg
# Description: Total Cmax in C57BL/6J mouse lungs at 26.5 mg/kg, po and 2 mg/kg, iv by LC-MS/MS analysis
# [31] = in vivo; settings: C57BL/6J, mouse, lung, po, 26.5 mg/kg; remark: listed apart in the source
# Description: Total AUC last in C57BL/6J mouse lungs at 26.5 mg/kg, po and 2 mg/kg, iv by LC-MS/MS analysis
# [32] = Clearance in C57BL/6J mouse at 1.4 mg/kg, iv by UPLC-MS/MS analysis; settings: in vivo
# [33] = in vivo; settings: C57BL/6J, mouse, po, 24.3 mg/kg
# Description: Half life in C57BL/6J mouse at 24.3 mg/kg, po and 1.4 mg/kg, iv by UPLC-MS/MS analysis
# [34] = in vivo; settings: C57BL/6J, mouse, po, 24.3 mg/kg; remark: listed apart in the source
# Description: Oral absorption in C57BL/6J mouse at 24.3 mg/kg by UPLC-MS/MS analysis
# [35] = in vivo; settings: C57BL/6J, mouse, po, 24.3 mg/kg; remark: listed apart in the source
# Description: Oral bioavailability in C57BL/6J mouse at 24.3 mg/kg by UPLC-MS/MS analysis
# [36] = in vivo; settings: C57BL/6J, mouse, plasma, po, 24.3 mg/kg
# Description: Total Cmax in C57BL/6J mouse plasma at 24.3 mg/kg, po and 1.4 mg/kg, iv by UPLC-MS/MS analysis
# [37] = in vivo; settings: C57BL/6J, mouse, plasma, po, 24.3 mg/kg; remark: listed apart in the source
# Description: Total AUClast in C57BL/6J mouse plasma at 24.3 mg/kg, po and 1.4 mg/kg, iv by UPLC-MS/MS analysis
# [38] = in vivo; settings: C57BL/6J, mouse, lungs, po, 24.3 mg/kg
# Description: Total Cmax in C57BL/6J mouse lungs at 24.3 mg/kg, po and 1.4 mg/kg, iv by UPLC-MS/MS analysis
# [39] = in vivo; settings: C57BL/6J, mouse, lungs, po, 24.3 mg/kg; remark: listed apart in the source
# Description: Total AUClast in C57BL/6J mouse lungs at 24.3 mg/kg, po and 1.4 mg/kg, iv by UPLC-MS/MS analysis
# [40] = in vivo; settings: C57BL/6J, mouse, lung and plasma, po, 24.3 mg/kg
# Description: Ratio of total AUC in lung to plasma in C57BL/6J mouse at 24.3 mg/kg, po and 1.4 mg/kg, iv by UPLC-MS/MS analysis
# [41] = in vivo; settings: C57BL/6J, mouse, po, 24.8 mg/kg
# Description: Half life in C57BL/6J mouse at 24.8 mg/kg, po and 1.8 mg/kg, iv by LC-MS/MS analysis
# [42] = in vivo; settings: C57BL/6J, mouse, po, 24.8 mg/kg; remark: listed apart in the source
# Description: Oral absorption in C57BL/6J mouse at 24.8 mg/kg by LC-MS/MS analysis
# [43] = in vivo; settings: C57BL/6J, mouse, po, 24.8 mg/kg; remark: listed apart in the source
# Description: Oral availability in C57BL/6J mouse at 24.8 mg/kg by LC-MS/MS analysis
# [44] = in vivo; settings: C57BL/6J, mouse, po, 24.8 mg/kg; remark: listed apart in the source
# Description: Total Cmax in C57BL/6J mouse plasma at 24.8 mg/kg, po and 1.8 mg/kg, iv by LC-MS/MS analysis
# [45] = in vivo; settings: C57BL/6J, mouse, po, 24.8 mg/kg; remark: listed apart in the source
# Description: Total AUC last in C57BL/6J mouse plasma at 24.8 mg/kg, po and 1.8 mg/kg, iv by LC-MS/MS analysis
# [46] = in vivo; settings: C57BL/6J, mouse, po, 24.8 mg/kg; remark: listed apart in the source
# Description: Total Cmax in C57BL/6J mouse lungs at 24.8 mg/kg, po and 1.8 mg/kg, iv by LC-MS/MS analysis
# [47] = in vivo; settings: C57BL/6J, mouse, po, 24.8 mg/kg; remark: listed apart in the source
# Description: Total AUC last in C57BL/6J mouse lungs at 24.8 mg/kg, po and 1.8 mg/kg, iv by LC-MS/MS analysis
Structure (SMILES),IC50 ([1]; read-out: pIC50 (converted)) [nM],"efflux ratio at 1 h, 10 µM [2]","fraction unbound at 5 h, 0.5 µM [3]","fraction unbound at 5 h, 0.5 µM [4]","fraction unbound at 5 h, 5 µM [5]","Papp A→B at 1 h, 10 µM [7] [×10⁻⁶ cm/s]","Papp B→A at 1 h, 10 µM [8] [×10⁻⁶ cm/s]",IC50 [9] [nM],IC50 [11] [nM],IC50 [12] [nM],IC50 [13] [nM],"microsomal CLint at 0.75 h, 0.5 µM [16] [µL/min/mg]","microsomal CLint at 0.75 h, 0.5 µM [17] [µL/min/mg]",also measured
Cc1csc2c(N[C@@H](C)CN3CCN(S(=O)(=O)c4ccc(Cl)c(Cl)c4)CC3)ncnc12,295,1,0.004,0.0065,0.001,0.89,0.91,676,9770,38900,6310,758,> 759,half-life [6]: 1 h; IC50 [10]: 324 nM; IC50 [14]: > 50100 nM; bioavailability [15]: 0.23%
COC(=O)Nc1nc(C)c(S(=O)(=O)N2CCN(C[C@H](C)Nc3ncnc4c(-c5ccc(C)nc5)cccc34)CC2)s1,4.17,5.7,< 0.01,0.0011,0.0175,,,2.45,> 50100,,,34,49,half-life [25]: 1.67 h; Fa [26]: 97%; bioavailability [27]: 87%; Cmax [28]: 71500 ng/mL; AUC(0-t) [29]: 280000 ng·h/mL; Cmax [30]: 15400 ng/mL; AUC(0-t) [31]: 50500 ng·h/mL
COC(=O)Nc1nc(C)c(S(=O)(=O)N2CCN(C[C@H](C)Nc3ncnc4c(C)csc34)CC2)s1,,1.7,< 0.01,0.0023,0.0385,8.12,13.5,479,> 50100,> 50100,24000,80,156,IC50 ([1]; read-out: IC50): 7080 nM; clearance [32]: 0.82 mL/min/kg; half-life [33]: 2.17 h; Fa [34]: 91%; bioavailability [35]: 85%; Cmax [36]: 91300 ng/mL; AUC(0-t) [37]: 435000 ng·h/mL; Cmax [38]: 25300 ng/mL; AUC(0-t) [39]: 119000 ng·h/mL; Kp [40]: 0.27

# Stronger by IC50 [9], values ahead:
IC50 ([1]; read-out: pIC50 (converted)) [nM],"efflux ratio at 1 h, 10 µM [2]","fraction unbound at 5 h, 0.5 µM [3]","fraction unbound at 5 h, 0.5 µM [4]","fraction unbound at 5 h, 5 µM [5]","Papp A→B at 1 h, 10 µM [7] [×10⁻⁶ cm/s]","Papp B→A at 1 h, 10 µM [8] [×10⁻⁶ cm/s]",IC50 [9] [nM],IC50 [11] [nM],IC50 [12] [nM],IC50 [13] [nM],"microsomal CLint at 0.75 h, 0.5 µM [16] [µL/min/mg]","microsomal CLint at 0.75 h, 0.5 µM [17] [µL/min/mg]",Structure (SMILES),also measured
4.57,98.1,< 0.01,0.0059,0.0187,0.09,8.95,0.282,> 50100,,,104,133,COC(=O)Nc1nc(C)c(S(=O)(=O)N2CCN(C[C@H](C)Nc3ncnc4c(-c5cccc(CN6CCCC6)c5)cccc34)CC2)s1,half-life [18]: 2.45 h; Fa [19]: 9%; bioavailability [20]: 7%; Cmax [21]: 4230 ng/mL; AUC(0-t) [22]: 12900 ng·h/mL; Cmax [23]: 2680 ng/mL; AUC(0-t) [24]: 19500 ng·h/mL
2.04,2.9,< 0.01,0.0015,0.0122,2.23,6.41,0.347,> 50100,,,52,125,COC(=O)Nc1nc(C)c(S(=O)(=O)N2CCN(C[C@H](C)Nc3ncnc4c(-c5cn(C)nc5C(F)(F)F)cccc34)CC2)s1,half-life [41]: 1.69 h; Fa [42]: 100%; bioavailability [43]: 89%; Cmax [44]: 70100 ng/mL; AUC(0-t) [45]: 418000 ng·h/mL; Cmax [46]: 19000 ng/mL; AUC(0-t) [47]: 78000 ng·h/mL
